Each molecule was assayed against T1, full length human TPH1 (Homo sapiens, UniProt P17752) (assay: Biochemical in vitro assay using fluorescence readout (TPH1 enzyme activity)). Settings: Table 1, mean where determined several times.
T1 construct: To generate the enzyme, full length human TPH1 is cloned into the plasmid pET20b(+); made in house; host or cells: E. coli
T1 sequence (P17752 1-444): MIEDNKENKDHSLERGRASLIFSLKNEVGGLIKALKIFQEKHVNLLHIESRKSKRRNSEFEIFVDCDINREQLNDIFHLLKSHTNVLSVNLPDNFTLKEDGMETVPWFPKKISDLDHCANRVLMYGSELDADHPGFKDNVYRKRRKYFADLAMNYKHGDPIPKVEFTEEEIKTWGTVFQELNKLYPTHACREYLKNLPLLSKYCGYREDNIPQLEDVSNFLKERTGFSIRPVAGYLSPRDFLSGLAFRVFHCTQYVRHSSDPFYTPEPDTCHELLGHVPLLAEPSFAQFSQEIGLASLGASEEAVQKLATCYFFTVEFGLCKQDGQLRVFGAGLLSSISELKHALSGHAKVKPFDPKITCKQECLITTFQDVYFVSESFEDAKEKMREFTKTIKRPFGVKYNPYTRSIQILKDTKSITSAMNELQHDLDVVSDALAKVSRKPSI
Method in brief: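 IC50 (mean of repeats) derived from 5-hydroxy-L-tryptophan fluorescence at 540 nm (300 nm excitation) relative to vehicle, after perchloric acid stop. Reaction: 60 min, 15° C., pH 7.6 Tris-HCl, 40 μM L-tryptophan, 100 μM 6-methyltetrahydropterine, DTT, catalase, with 40-80 nM purified full-length human TPH1 from E. coli.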
Molecule CCc1nc(NS(C)(=O)=O)ccc1OCC(=O)N1CCc2nc3n(c2C1c1cnc(-c2ccccc2)s1)CCCC3 (stereo not shown) [Example 1.16.1, N-(6-ethyl-5-(2-oxo-2-(1-(2-phenylthiazol-5-yl)-3,4,6,7,8,9-hexahydroimidazo[1,2-a:5,4-c′]dipyridin-2(1H)-yl)ethoxy)pyridin-2-yl)methanesulfonamide] has an IC50 of 225 nM. Cc1nc(C)c(C2c3c(nc4n3CCCC4)CCN2C(=O)COc2ccc(C3CC3)nc2Cl)s1 (stereo not shown) [Example 1.10.8, 2-((2-chloro-6-cyclopropylpyridin-3-yl)oxy)-1-(1-(2,4-dimethylthiazol-5-yl)-3,4,6,7,8,9-hexahydroimi-dazo[1,2-a:5,4-c′]dipyridin-2(1H)-yl)ethanone] gave an IC50 of 33 nM. Cc1nc(C(C)C)sc1C1c2c(nc3n2CCCC3)CCN1C(=O)COc1ccc(NS(C)(=O)=O)nc1Cl (stereo not shown) [Example 1.12.1, N-(6-chloro-5-(2-(1-(2-isopropyl-4-methylthiazol-5-yl)-3,4,6,7,8,9-hexahydroimidazo[1,2-a:5,4-c′]dipyridin-2(1H)-yl)-2-oxoethoxy)pyridin-2-yl)methanesulfonamide] showed an IC50 of 819 nM. For CCc1nc(Cl)ncc1OCC(=O)N1CCc2nc3n(c2C1c1ccc(Cl)cc1F)CCS3 (stereo not shown) [Example 4.1.11, 1-(5-(4-chloro-2-fluorophenyl)-2,3,7,8-tetrahydrothiazolo[2′,3′:2,3]imidazo[4,5-c]pyridin-6(5H)-yl)-2-((2-chloro-4-ethylpyrimidin-5-yl)oxy)ethanone], the IC50 was 185 nM. For Cc1ccc(C2c3c(nc4n3CCS4)CCN2C(=O)COc2ccc(C(=O)NC3CC3)nc2Cl)c(F)c1F (stereo not shown) [Example 4.4.2, 6-chloro-N-cyclopropyl-5-(2-(5-(2,3-difluoro-4-methylphenyl)-2,3,7,8-tetrahydrothiazolo[2′,3′:2,3]imidazo[4,5-c]pyridin-6(5H)-yl)-2-oxoethoxy)picolinamide], the IC50 was 15 nM. Work on CCc1nc(N2CCCS2(=O)=O)ccc1OCC(=O)N1CCc2nc3n(c2C1c1sc(C)nc1C)CCC3 (stereo not shown) [Example 2.4.1, 1-(1-(2,4-dimethylthiazol-5-yl)-3,4,7,8-tetrahydro-1H-pyrrolo[2′,1′:2,3]imidazo[4,5-c]pyridin-2(6H)-yl)-2-((6-(1,1-dioxidoisothiazolidin-2-yl)-2-ethylpyridin-3-yl)oxy)ethanone] yielded an IC50 of 8 nM. For COCc1ccc(C2c3c(nc4n3CCCC4)CCN2C(=O)COc2ccc(NS(C)(=O)=O)nc2Cl)c(F)c1 (stereo not shown) [Example 1.26.2, N-(6-chloro-5-(2-(1-(2-fluoro-4-(methoxymethyl)phenyl)-3,4,6,7,8,9-hexahydroimidazo[1,2-a:5,4-c′]dipyridin-2(1H)-yl)-2-oxoethoxy)pyridin-2-yl)methanesulfonamide], the IC50 was 25 nM. In the case of N#Cc1ccc(C2c3c(nc4n3CCCC4)CCN2C(=O)COc2ccc(C(=O)NC3CC3)nc2Cl)c(F)c1 (stereo not shown) [Example 1.22.2, 6-chloro-5-(2-(1-(4-cyano-2-fluorophenyl)-3,4,6,7,8,9-hexahydroimidazo[1,2-a:5,4-c′]dipyridin-2(1H)-yl)-2-oxoethoxy)-N-cyclopropylpicolinamide], the IC50 is reported as 28 nM. With N#Cc1ccc(OCC(=O)N2CCc3nc4n(c3C2c2ccc(C3CC3)cc2F)CCNC4)c(Cl)c1 (stereo not shown) [Example 5.2.9, 3-chloro-4-(2-(1-(4-cyclopropyl-2-fluorophenyl)-3,4,6,7,8,9-hexahydropyrido[4′,3′:4,5]imidazo[1,2-a]pyrazin-2(1H)-yl)-2-oxoethoxy)benzonitrile] the IC50 was 92 nM. In the case of CC(C)N(C)C(=O)c1ccc(OCC(=O)N2CCc3nc4n(c3C2c2ccc(Cl)cc2F)CCCC4)c(Cl)n1 (stereo not shown) [Example 1.1.8, 6-chloro-5-(2-(1-(4-chloro-2-fluorophenyl)-3,4,6,7,8,9-hexahydroimidazo[1,2-a:5,4-c′]dipyridin-2(1H)-yl)-2-oxoethoxy)-N-isopropyl-N-methylpicolinamide], the IC50 is reported as 55 nM. CS(=O)(=O)Nc1ccc(OCC(=O)N2CCc3nc4n(c3C2c2ncc(Cl)cc2F)CCOC4)c(Cl)n1 (stereo not shown) [Example 6.4.1, N-(6-chloro-5-(2-(6-(5-chloro-3-fluoropyridin-2-yl)-3,4,8,9-tetrahydro-1H-pyrido[4′,3′:4,5]imidazo[2,1-c][1,4]oxazin-7(6H)-yl)-2-oxoethoxy)pyridin-2-yl)methanesulfonamide] showed an IC50 of 143 nM. For CCc1nc(NS(C)(=O)=O)ccc1OCC(=O)N1CCc2nc3n(c2C1c1nc(-c2ccccc2)no1)CCCC3 (stereo not shown) [Example 1.17.1, N-(6-ethyl-5-(2-oxo-2-(1-(3-phenyl-1,2,4-oxadiazol-5-yl)-3,4,6,7,8,9-hexahydroimidazo[1,2-a:5,4-c′]dipyridin-2(1H)-yl)ethoxy)pyridin-2-yl)methanesulfonamide], the IC50 was 79 nM. CN(C)C(=O)c1ccc(OCC(=O)N2CCc3nc4n(c3C2c2ccc(C3CC3)cc2F)CCOC4)c(Cl)c1 (stereo not shown) [Example 6.2.2, 3-chloro-4-(2-(6-(4-cyclopropyl-2-fluorophenyl)-3,4,8,9-tetrahydro-1H-pyrido[4′,3′:4,5]imidazo[2,1-c][1,4]oxazin-7(6H)-yl)-2-oxoethoxy)-N,N-dimethylbenzamide] was tested, and the IC50 was 13 nM. Cc1ccc(C2c3c(nc4n3CCCC4)CCN2C(=O)COc2ccc(C(=O)N(C)C3CC3)nc2Cl)c(F)c1F (stereo not shown) [Example 1.9.3, 6-chloro-N-cyclopropyl-5-(2-(1-(2,3-difluoro-4-methyl-phenyl)-3,4,6,7,8,9-hexahydroimidazo[1,2-a:5,4-c′]di-pyridin-2(1H)-yl)-2-oxoethoxy)-N-methylpicolinamide] showed an IC50 of 27 nM. CC(=O)N1CCn2c(nc3c2C(c2ccc(C4CC4)cc2F)N(C(=O)COc2ccc(N4CCOCC4)cc2Cl)CC3)C1 (stereo not shown) [Example 5.2.5, 1-(7-acetyl-1-(4-cyclopropyl-2-fluorophenyl)-3,4,6,7,8,9-hexahydropyrido[4′,3′:4,5]imidazo[1,2-a]pyrazin-2(1H)-yl)-2-(2-chloro-4-morpholinophenoxy)ethanone] gave an IC50 of 7 nM. With CCc1nc(NS(C)(=O)=O)ccc1OCC(=O)N1CCc2nc3n(c2C1c1sc(C(=O)N(C)C)cc1F)CCCC3 (stereo not shown) [Example 1.4.2, 5-(2-(2-((2-ethyl-6-(methylsulfonamido)pyridin-3-yl)oxy)acetyl)-1,2,3,4,6,7,8,9-octahydroimidazo[1,2-a:5,4-c′]dipyridin-1-yl)-4-fluoro-N,N-dimethylthiophene-2-carboxamide] the IC50 was 38 nM. CN(C)C(=O)c1ccc(OCC(=O)N2CCc3nc4n(c3C2c2sc(C(=O)N(C)C)cc2F)CCCC4)c(Cl)n1 (stereo not shown) [Example 1.4.1, 6-chloro-5-(2-(1-(5-(dimethylcarbamoyl)-3-fluoro-thiophen-2-yl)-3,4,6,7,8,9-hexahydroimidazo[1,2-a:5,4-c′]dipyridin-2(1H)-yl)-2-oxoethoxy)-N,N-dimethyl-picolinamide] showed an IC50 of 55 nM. Molecule CCc1nc(N2CCCS2(=O)=O)ccc1OCC(=O)N1CCc2nc3n(c2C1c1sc(C)nc1C)CCS3 (stereo not shown) [Example 4.5.2, 1-(5-(2,4-dimethylthiazol-5-yl)-2,3,7,8-tetrahydrothiazolo[2′,3′:2,3]imidazo[4,5-c]pyridin-6(5H)-yl)-2-((6-(1,1-dioxidoisothiazolidin-2-yl)-2-ethylpyridin-3-yl)oxy)ethanone] has an IC50 of 10 nM. CN(C(=O)c1ccc(OCC(=O)N2CCc3nc4n(c3C2c2ccc(Cl)cc2F)CCCC4)c(Cl)n1)C1CC1 (stereo not shown) [Example 1.1.4, 6-chloro-5-(2-(1-(4-chloro-2-fluorophenyl)-3,4,6,7,8,9-hexahydroimidazo[1,2-a:5,4-c′]dipyridin-2(1H)-yl)-2-oxoethoxy)-N-cyclopropyl-N-methylpicolinamide] showed an IC50 of 29 nM.
